Results published in the kinase profiling compilation of Christmann-Franck et al. (2016).

How the values were obtained:
Assay in all cases: radiometric filter-binding kinase assay
AURKB (human) = AURKB (human) (UniProt Q96GD4)
CHEK1 (human) = CHEK1 (human) (UniProt O14757)
CSNK2A1 (human) = CSNK2A1 (human) (UniProt P68400)
HIPK1 (human) = HIPK1 (human) (UniProt Q86Z02); conditions: compound 10.0 µM
MKNK1 (human) = MKNK1 (human) (UniProt Q9BUB5)
MAPK13 (human) = MAPK13 (human) (UniProt O15264)
CAMKK2 (human) = CAMKK2 (human) (UniProt Q96RR4)
CaMK1 (human) = CaMK1 (human) (UniProt Q14012)
MAPK10 (human) = MAPK10 (human) (UniProt P53779)
YES1 (human) = YES1 (human) (UniProt P07947)
YES1 (human), sequence (P07947 whole entry, looked up): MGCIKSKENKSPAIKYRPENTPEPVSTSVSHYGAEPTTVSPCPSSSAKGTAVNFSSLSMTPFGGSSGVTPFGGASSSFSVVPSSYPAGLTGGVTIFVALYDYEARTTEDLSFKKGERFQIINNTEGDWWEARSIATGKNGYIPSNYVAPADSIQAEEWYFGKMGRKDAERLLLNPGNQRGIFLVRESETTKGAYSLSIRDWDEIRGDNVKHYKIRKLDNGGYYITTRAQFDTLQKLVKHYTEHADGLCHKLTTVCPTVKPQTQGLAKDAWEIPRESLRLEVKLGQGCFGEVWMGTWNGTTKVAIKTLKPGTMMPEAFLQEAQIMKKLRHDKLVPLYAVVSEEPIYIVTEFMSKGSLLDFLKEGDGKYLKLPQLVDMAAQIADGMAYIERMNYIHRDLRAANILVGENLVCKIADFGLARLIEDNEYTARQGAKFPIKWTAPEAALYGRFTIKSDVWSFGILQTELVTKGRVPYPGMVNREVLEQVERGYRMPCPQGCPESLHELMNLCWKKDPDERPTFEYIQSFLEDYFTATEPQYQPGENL

MINK1 (human) = MINK1 (human) (UniProt Q8N4C8)
IGF1R (human) = IGF1R (human) (UniProt P08069)
DYRK1A (human) = DYRK1A (human) (UniProt Q13627)
MARK3 (human) = MARK3 (human) (UniProt P27448)
TAOK1 (human) = TAOK1 (human) (UniProt Q7L7X3)
[1] = tested on: PAK2 (human), Q13177 [T402E]
PAK2 (human), Q13177 [T402E], sequence (Q13177 whole entry T402E, looked up): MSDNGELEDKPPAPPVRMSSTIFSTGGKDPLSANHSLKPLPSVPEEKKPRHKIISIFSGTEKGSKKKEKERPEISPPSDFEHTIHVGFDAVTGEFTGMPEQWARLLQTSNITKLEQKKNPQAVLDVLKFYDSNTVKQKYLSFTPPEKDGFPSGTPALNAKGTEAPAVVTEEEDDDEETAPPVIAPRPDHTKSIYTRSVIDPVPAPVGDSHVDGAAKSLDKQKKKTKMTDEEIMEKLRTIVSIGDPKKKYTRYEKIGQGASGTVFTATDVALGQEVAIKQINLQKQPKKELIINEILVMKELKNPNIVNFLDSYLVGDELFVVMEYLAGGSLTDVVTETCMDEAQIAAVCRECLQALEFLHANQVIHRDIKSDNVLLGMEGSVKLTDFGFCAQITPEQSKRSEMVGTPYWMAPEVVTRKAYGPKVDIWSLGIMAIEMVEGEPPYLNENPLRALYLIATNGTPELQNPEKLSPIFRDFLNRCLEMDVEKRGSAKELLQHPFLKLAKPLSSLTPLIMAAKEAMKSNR

HIPK2 (human) = HIPK2 (human) (UniProt Q9H2X6)
MAPKAPK5 (human) = MAPKAPK5 (human) (UniProt Q8IW41)
MAPKAPK5 (human), sequence (Q8IW41 whole entry, looked up): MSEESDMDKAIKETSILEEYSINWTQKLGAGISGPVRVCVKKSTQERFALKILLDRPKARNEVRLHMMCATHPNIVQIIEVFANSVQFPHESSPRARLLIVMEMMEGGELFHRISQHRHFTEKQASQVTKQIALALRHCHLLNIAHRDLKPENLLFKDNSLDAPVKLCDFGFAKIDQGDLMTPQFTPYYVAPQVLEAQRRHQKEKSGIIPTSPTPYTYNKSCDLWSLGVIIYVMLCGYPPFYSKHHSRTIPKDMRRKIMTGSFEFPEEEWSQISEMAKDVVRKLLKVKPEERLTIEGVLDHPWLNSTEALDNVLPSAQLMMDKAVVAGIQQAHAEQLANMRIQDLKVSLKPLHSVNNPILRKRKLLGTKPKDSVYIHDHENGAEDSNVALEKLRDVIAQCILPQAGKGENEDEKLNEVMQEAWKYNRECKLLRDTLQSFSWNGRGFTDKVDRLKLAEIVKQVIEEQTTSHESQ

ROCK2 (rat) = conditions: accession and sequence are those of the human protein
STK3 (human) = STK3 (human) (UniProt Q13188)
JAK2 JH1 JH2 (human) = JAK2 JH1 JH2 (human) (UniProt O60674)
DAPK1 (human) = DAPK1 (human) (UniProt P53355)
DAPK1 (human), sequence (P53355 whole entry, looked up): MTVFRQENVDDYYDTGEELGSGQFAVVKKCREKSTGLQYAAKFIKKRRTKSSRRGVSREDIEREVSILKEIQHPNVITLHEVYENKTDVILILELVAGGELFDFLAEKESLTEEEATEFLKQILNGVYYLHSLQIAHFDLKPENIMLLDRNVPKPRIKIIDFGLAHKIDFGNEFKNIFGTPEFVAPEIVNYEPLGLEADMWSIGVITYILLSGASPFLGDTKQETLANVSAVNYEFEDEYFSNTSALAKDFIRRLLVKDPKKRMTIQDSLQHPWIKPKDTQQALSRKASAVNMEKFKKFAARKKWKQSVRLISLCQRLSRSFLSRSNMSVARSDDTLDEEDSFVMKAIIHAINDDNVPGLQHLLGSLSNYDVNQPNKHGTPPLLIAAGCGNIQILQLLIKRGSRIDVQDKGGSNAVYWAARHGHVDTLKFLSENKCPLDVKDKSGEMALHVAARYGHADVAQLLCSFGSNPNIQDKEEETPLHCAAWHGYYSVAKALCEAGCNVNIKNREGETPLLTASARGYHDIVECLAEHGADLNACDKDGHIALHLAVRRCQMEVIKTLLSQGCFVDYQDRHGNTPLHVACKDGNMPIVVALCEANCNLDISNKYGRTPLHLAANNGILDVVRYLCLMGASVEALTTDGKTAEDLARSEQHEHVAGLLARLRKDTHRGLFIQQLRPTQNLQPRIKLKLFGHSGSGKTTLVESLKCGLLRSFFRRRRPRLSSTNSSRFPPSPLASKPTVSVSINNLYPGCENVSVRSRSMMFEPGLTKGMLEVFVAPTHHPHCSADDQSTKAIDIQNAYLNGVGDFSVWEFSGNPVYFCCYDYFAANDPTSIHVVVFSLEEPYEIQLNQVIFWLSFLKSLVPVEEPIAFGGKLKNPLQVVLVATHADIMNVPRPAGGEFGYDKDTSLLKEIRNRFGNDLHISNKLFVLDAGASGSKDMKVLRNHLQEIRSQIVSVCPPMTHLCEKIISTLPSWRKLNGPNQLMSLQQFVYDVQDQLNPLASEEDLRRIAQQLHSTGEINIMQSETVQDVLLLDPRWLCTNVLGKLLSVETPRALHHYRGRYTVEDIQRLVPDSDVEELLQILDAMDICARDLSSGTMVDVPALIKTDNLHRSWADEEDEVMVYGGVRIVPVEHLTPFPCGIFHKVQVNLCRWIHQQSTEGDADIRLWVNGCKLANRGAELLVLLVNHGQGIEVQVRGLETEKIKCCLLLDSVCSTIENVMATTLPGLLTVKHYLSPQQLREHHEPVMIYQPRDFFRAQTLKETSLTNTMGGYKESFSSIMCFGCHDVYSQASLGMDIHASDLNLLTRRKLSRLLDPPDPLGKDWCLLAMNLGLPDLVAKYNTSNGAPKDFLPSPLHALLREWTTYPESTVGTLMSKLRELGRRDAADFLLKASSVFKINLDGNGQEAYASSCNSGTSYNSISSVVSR

FGFR1 (human) = FGFR1 (human) (UniProt P11362)
LCK (mouse) = conditions: accession and sequence are those of the human protein
PIM3 (human) = PIM3 (human) (UniProt Q86V86)
PHKG1 (human) = PHKG1 (human) (UniProt Q16816)
DYRK3 (human) = DYRK3 (human) (UniProt O43781)
CLK2 (human) = CLK2 (human) (UniProt P49760); conditions: compound 10.0 µM
EPHB2 (human) = EPHB2 (human) (UniProt P29323)
SRPK1 (human) = SRPK1 (human) (UniProt Q96SB4)
[2] = tested on: SGK1 (human), O00141 [S422D]
SGK1 (human), O00141 [S422D], sequence (O00141 whole entry S422D, looked up): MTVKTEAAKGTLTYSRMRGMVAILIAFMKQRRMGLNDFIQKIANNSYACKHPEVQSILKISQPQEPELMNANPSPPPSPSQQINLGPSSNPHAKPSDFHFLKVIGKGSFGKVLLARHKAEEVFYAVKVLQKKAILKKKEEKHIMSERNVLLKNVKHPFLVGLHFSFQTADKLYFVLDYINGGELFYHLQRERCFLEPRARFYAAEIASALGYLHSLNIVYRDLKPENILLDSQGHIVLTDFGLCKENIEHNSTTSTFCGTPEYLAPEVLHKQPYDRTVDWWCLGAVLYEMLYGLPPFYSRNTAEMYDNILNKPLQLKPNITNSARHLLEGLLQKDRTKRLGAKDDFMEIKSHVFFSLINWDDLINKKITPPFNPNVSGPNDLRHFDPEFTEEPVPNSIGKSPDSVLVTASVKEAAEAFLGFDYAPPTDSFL

BRSK2 (human) = BRSK2 (human) (UniProt Q8IWQ3)
BRSK2 (human), sequence (Q8IWQ3 whole entry, looked up): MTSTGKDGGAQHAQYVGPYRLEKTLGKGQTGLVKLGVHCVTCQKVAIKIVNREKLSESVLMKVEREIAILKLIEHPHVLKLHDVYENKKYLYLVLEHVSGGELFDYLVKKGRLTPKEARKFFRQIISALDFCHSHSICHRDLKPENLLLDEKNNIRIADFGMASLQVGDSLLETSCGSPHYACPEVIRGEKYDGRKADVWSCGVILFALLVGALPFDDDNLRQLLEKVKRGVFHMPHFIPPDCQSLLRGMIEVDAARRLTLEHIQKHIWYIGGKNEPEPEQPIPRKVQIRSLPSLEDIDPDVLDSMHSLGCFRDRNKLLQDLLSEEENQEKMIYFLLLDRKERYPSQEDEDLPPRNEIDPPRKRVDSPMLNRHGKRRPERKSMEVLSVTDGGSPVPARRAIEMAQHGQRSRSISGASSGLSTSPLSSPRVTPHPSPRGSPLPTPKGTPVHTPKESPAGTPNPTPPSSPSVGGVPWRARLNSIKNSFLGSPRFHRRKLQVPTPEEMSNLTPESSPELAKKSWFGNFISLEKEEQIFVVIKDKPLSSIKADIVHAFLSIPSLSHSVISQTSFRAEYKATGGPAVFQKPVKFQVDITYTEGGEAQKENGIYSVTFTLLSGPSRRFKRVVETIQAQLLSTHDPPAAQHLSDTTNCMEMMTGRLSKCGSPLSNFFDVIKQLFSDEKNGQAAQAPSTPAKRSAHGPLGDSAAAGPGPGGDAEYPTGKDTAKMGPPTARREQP

TBK1 (human) = TBK1 (human) (UniProt Q9UHD2)
GCK (human) = GCK (human) (UniProt Q12851)
MAPK8 (human) = MAPK8 (human) (UniProt P45983)
MAPK8 (human), sequence (P45983 whole entry, looked up): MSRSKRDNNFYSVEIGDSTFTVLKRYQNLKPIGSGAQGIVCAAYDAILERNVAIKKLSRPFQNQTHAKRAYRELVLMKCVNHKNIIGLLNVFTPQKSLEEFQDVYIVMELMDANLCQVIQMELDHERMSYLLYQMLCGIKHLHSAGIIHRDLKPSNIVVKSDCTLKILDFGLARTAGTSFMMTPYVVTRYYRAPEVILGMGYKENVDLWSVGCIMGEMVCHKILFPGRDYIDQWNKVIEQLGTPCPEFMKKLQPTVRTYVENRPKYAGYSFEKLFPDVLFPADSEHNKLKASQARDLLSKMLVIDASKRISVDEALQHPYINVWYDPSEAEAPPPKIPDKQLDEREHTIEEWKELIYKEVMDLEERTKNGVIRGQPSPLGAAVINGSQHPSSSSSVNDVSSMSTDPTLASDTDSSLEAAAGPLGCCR

MAPK11 (human) = MAPK11 (human) (UniProt Q15759)

MAPK13 (human), sequence (O15264 whole entry, looked up): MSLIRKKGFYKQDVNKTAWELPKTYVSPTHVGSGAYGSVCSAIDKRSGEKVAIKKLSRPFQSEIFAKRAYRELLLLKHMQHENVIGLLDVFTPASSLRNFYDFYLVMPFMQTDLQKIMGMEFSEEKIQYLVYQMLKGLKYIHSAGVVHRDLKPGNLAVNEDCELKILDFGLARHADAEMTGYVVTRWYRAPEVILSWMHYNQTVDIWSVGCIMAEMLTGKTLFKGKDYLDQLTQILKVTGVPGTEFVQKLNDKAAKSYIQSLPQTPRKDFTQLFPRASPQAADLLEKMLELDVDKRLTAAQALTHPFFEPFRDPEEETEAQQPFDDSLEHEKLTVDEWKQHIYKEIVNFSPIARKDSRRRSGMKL

SMILES: COc1cc2ncn(-c3cc(OCc4ccccc4S(C)(=O)=O)c(C#N)s3)c2cc1OC
- residual activity (AURKB (human); compound 1.0 µM): 6%
- residual activity (AURKB (human); compound 10.0 µM): 4%
- residual activity (CHEK1 (human); compound 1.0 µM): 79%
- residual activity (CHEK1 (human); compound 10.0 µM): 64%
- residual activity (CSNK2A1 (human); compound 1.0 µM): 118%
- residual activity (CSNK2A1 (human); compound 10.0 µM): 107%
- residual activity (HIPK1 (human)): 58%
- residual activity (MKNK1 (human); compound 1.0 µM): 47%
- residual activity (MKNK1 (human); compound 10.0 µM): 34%
- residual activity (MAPK13 (human); compound 1.0 µM): 112%
- residual activity (MAPK13 (human); compound 10.0 µM): 86%
- residual activity (CAMKK2 (human); compound 1.0 µM): 112%
- residual activity (CAMKK2 (human); compound 10.0 µM): 86%
- residual activity (CaMK1 (human); compound 1.0 µM): 90%
- residual activity (CaMK1 (human); compound 10.0 µM): 80%
- residual activity (MAPK10 (human); compound 1.0 µM): 99%
- residual activity (MAPK10 (human); compound 10.0 µM): 77%
- residual activity (YES1 (human); compound 1.0 µM): 43%
- residual activity (YES1 (human); compound 10.0 µM): 58%
- residual activity (MINK1 (human); compound 1.0 µM): 5%
- residual activity (MINK1 (human); compound 10.0 µM): 1%
- residual activity (IGF1R (human); compound 1.0 µM): 89%
- residual activity (IGF1R (human); compound 10.0 µM): 92%
- residual activity (DYRK1A (human); compound 1.0 µM): 73%
- residual activity (DYRK1A (human); compound 10.0 µM): 81%
- residual activity (MARK3 (human); compound 1.0 µM): 31%
- residual activity (MARK3 (human); compound 10.0 µM): 41%
- residual activity (TAOK1 (human); compound 1.0 µM): 61%
- residual activity (TAOK1 (human); compound 10.0 µM): 27%
- residual activity ([1]; compound 1.0 µM): 94%
- residual activity ([1]; compound 10.0 µM): 111%
- residual activity (HIPK2 (human); compound 1.0 µM): 49%
- residual activity (HIPK2 (human); compound 10.0 µM): 32%
- residual activity (MAPKAPK5 (human); compound 1.0 µM): 101%
- residual activity (ROCK2 (rat); compound 1.0 µM): 93%
- residual activity (ROCK2 (rat); compound 10.0 µM): 61%
- residual activity (STK3 (human); compound 1.0 µM): 19%
- residual activity (STK3 (human); compound 10.0 µM): 7%
- residual activity (JAK2 JH1 JH2 (human); compound 1.0 µM): 34%
- residual activity (JAK2 JH1 JH2 (human); compound 10.0 µM): 18%
- residual activity (DAPK1 (human); compound 1.0 µM): 54%
- residual activity (DAPK1 (human); compound 10.0 µM): 51%
- residual activity (FGFR1 (human); compound 1.0 µM): 49%
- residual activity (FGFR1 (human); compound 10.0 µM): 49%
- residual activity (LCK (mouse); compound 1.0 µM): 35%
- residual activity (LCK (mouse); compound 10.0 µM): 33%
- residual activity (PIM3 (human); compound 1.0 µM): 90%
- residual activity (PIM3 (human); compound 10.0 µM): 73%
- residual activity (PHKG1 (human); compound 1.0 µM): 5%
- residual activity (PHKG1 (human); compound 10.0 µM): 4%
- residual activity (DYRK3 (human); compound 1.0 µM): 75%
- residual activity (DYRK3 (human); compound 10.0 µM): 82%
- residual activity (CLK2 (human)): 18%
- residual activity (EPHB2 (human); compound 1.0 µM): 62%
- residual activity (EPHB2 (human); compound 10.0 µM): 50%
- residual activity (SRPK1 (human); compound 1.0 µM): 93%
- residual activity (SRPK1 (human); compound 10.0 µM): 79%
- residual activity ([2]; compound 1.0 µM): 105%
- residual activity (BRSK2 (human); compound 10.0 µM): 30%
- residual activity (TBK1 (human); compound 1.0 µM): 21%
- residual activity (TBK1 (human); compound 10.0 µM): 17%
- residual activity (GCK (human); compound 1.0 µM): 24%
- residual activity (GCK (human); compound 10.0 µM): 8%
- residual activity (MAPK8 (human); compound 1.0 µM): 92%
- residual activity (MAPK8 (human); compound 10.0 µM): 87%
- residual activity (MAPK11 (human); compound 1.0 µM): 103%

SMILES: Oc1ccc(/C=C/c2cc(O)cc(O)c2)cc1
- residual activity (AURKB (human); compound 1.0 µM): 97%
- residual activity (AURKB (human); compound 10.0 µM): 62%
- residual activity (AURKB (human); compound 50.0 µM): 22%
- residual activity (CHEK1 (human); compound 1.0 µM): 95%
- residual activity (CHEK1 (human); compound 10.0 µM): 79%
- residual activity (CHEK1 (human); compound 50.0 µM): 29%
- residual activity (CSNK2A1 (human); compound 1.0 µM): 101%
- residual activity (CSNK2A1 (human); compound 10.0 µM): 82%
- residual activity (CSNK2A1 (human); compound 50.0 µM): 49%
- residual activity (HIPK1 (human)): 48%
- residual activity (MKNK1 (human); compound 1.0 µM): 102%
- residual activity (MKNK1 (human); compound 10.0 µM): 66%
- residual activity (MKNK1 (human); compound 50.0 µM): 125%
- residual activity (MAPK13 (human); compound 1.0 µM): 95%
- residual activity (MAPK13 (human); compound 10.0 µM): 91%
- residual activity (MAPK13 (human); compound 50.0 µM): 72%
- residual activity (CAMKK2 (human); compound 1.0 µM): 107%
- residual activity (CAMKK2 (human); compound 10.0 µM): 74%
- residual activity (CAMKK2 (human); compound 50.0 µM): 28%
- residual activity (CaMK1 (human); compound 1.0 µM): 75%
- residual activity (CaMK1 (human); compound 10.0 µM): 73%
- residual activity (CaMK1 (human); compound 50.0 µM): 38%
- residual activity (MAPK10 (human); compound 1.0 µM): 80%
- residual activity (MAPK10 (human); compound 10.0 µM): 87%
- residual activity (MAPK10 (human); compound 50.0 µM): 114%
- residual activity (YES1 (human); compound 10.0 µM): 77%
- residual activity (MINK1 (human); compound 10.0 µM): 66%
- residual activity (IGF1R (human); compound 10.0 µM): 59%
- residual activity (DYRK1A (human); compound 1.0 µM): 94%
- residual activity (DYRK1A (human); compound 10.0 µM): 61%
- residual activity (DYRK1A (human); compound 50.0 µM): 17%
- residual activity (MARK3 (human); compound 1.0 µM): 99%
- residual activity (MARK3 (human); compound 10.0 µM): 82%
- residual activity (MARK3 (human); compound 50.0 µM): 41%
- residual activity (TAOK1 (human); compound 10.0 µM): 32%
- residual activity ([1]; compound 10.0 µM): 83%
- residual activity (HIPK2 (human); compound 1.0 µM): 60%
- residual activity (HIPK2 (human); compound 10.0 µM): 30%
- residual activity (HIPK2 (human); compound 50.0 µM): 3%
- residual activity (MAPKAPK5 (human); compound 1.0 µM): 105%
- residual activity (MAPKAPK5 (human); compound 10.0 µM): 85%
- residual activity (MAPKAPK5 (human); compound 50.0 µM): 56%
- residual activity (ROCK2 (rat); compound 1.0 µM): 125%
- residual activity (ROCK2 (rat); compound 10.0 µM): 83%
- residual activity (ROCK2 (rat); compound 50.0 µM): 21%
- residual activity (STK3 (human); compound 1.0 µM): 84%
- residual activity (STK3 (human); compound 10.0 µM): 69%
- residual activity (STK3 (human); compound 50.0 µM): 28%
- residual activity (JAK2 JH1 JH2 (human); compound 10.0 µM): 27%
- residual activity (DAPK1 (human); compound 10.0 µM): 62%
- residual activity (FGFR1 (human); compound 10.0 µM): 85%
- residual activity (LCK (mouse); compound 1.0 µM): 115%
- residual activity (LCK (mouse); compound 10.0 µM): 97%
- residual activity (LCK (mouse); compound 50.0 µM): 59%
- residual activity (PIM3 (human); compound 1.0 µM): 48%
- residual activity (PIM3 (human); compound 10.0 µM): 44%
- residual activity (PIM3 (human); compound 50.0 µM): 2%
- residual activity (PHKG1 (human); compound 1.0 µM): 58%
- residual activity (PHKG1 (human); compound 10.0 µM): 21%
- residual activity (PHKG1 (human); compound 50.0 µM): 23%
- residual activity (DYRK3 (human); compound 1.0 µM): 38%
- residual activity (DYRK3 (human); compound 10.0 µM): 8%
- residual activity (DYRK3 (human); compound 50.0 µM): 2%
- residual activity (CLK2 (human)): 55%
- residual activity (EPHB2 (human); compound 10.0 µM): 116%
- residual activity (SRPK1 (human); compound 1.0 µM): 111%
- residual activity (SRPK1 (human); compound 10.0 µM): 87%
- residual activity (SRPK1 (human); compound 50.0 µM): 93%
- residual activity ([2]; compound 1.0 µM): 79%
- residual activity ([2]; compound 10.0 µM): 94%
- residual activity ([2]; compound 50.0 µM): 23%
- residual activity (BRSK2 (human); compound 1.0 µM): 54%
- residual activity (BRSK2 (human); compound 10.0 µM): 50%
- residual activity (BRSK2 (human); compound 50.0 µM): 13%
- residual activity (TBK1 (human); compound 10.0 µM): 79%
- residual activity (GCK (human); compound 10.0 µM): 73%
- residual activity (MAPK8 (human); compound 1.0 µM): 96%
- residual activity (MAPK8 (human); compound 10.0 µM): 108%
- residual activity (MAPK8 (human); compound 50.0 µM): 101%
- residual activity (MAPK11 (human); compound 1.0 µM): 112%
- residual activity (MAPK11 (human); compound 10.0 µM): 93%
- residual activity (MAPK11 (human); compound 50.0 µM): 108%
